{
  "source": "paper PMC6704710",
  "about": "“Preclinical evaluation of 3D185, a novel potent inhibitor of FGFR1/2/3 and CSF-1R, in FGFR-dependent and macrophage-dominant cancer models” (Journal of Experimental & Clinical Cancer Research : CR, 2019)",
  "test_in_all_cases": "Eurofins kinase panel",
  "assay_type_in_all_cases": "biochemical",
  "conditions_in_all_cases": "read-out: Inhibition rate (%)",
  "key": {"CLK1(h)": {"molecular_target": "T1, CLK1(h) (Homo sapiens, UniProt P49759)", "T1 construct": "purchased Eurofins (KinaseProfiler)"}, "GRK3(h)": {"molecular_target": "T2, GRK3(h) (Homo sapiens, UniProt P35626)", "T2 construct": "purchased Eurofins (KinaseProfiler)", "T2 sequence (P35626 1-688)": "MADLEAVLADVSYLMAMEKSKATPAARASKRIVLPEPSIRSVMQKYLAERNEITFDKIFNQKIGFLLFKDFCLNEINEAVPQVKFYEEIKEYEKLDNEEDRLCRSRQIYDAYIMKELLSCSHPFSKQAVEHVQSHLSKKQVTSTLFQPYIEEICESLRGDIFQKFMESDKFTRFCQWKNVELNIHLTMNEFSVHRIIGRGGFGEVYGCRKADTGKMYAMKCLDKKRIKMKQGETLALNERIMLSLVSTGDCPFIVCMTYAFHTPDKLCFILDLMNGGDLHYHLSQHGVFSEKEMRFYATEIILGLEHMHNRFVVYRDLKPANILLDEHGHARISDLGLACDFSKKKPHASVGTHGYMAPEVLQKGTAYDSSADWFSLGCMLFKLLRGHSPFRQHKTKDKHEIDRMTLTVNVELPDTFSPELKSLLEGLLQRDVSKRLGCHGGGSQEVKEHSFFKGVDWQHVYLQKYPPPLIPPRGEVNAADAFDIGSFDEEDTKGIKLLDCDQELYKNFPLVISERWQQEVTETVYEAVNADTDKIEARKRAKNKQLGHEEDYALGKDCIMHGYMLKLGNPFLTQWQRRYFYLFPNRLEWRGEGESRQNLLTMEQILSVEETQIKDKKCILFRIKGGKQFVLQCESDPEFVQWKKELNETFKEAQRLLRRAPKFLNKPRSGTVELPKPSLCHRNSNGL"}, "BRK(h)": {"molecular_target": "T3, BRK(h) (Homo sapiens, UniProt Q13882)", "T3 construct": "purchased Eurofins (KinaseProfiler)"}, "CDK2/cyclinA(h)": {"molecular_target": "T4, CDK2/cyclinA(h) (Homo sapiens, UniProt P24941)", "T4 construct": "purchased Eurofins (KinaseProfiler)"}, "PKCβI(h)": {"molecular_target": "T5, PKCβI(h) (Homo sapiens, UniProt P05771)", "T5 construct": "purchased Eurofins (KinaseProfiler)"}, "CaMKIIβ(h)": {"molecular_target": "T6, CaMKIIβ(h) (Homo sapiens, UniProt Q13554)", "T6 construct": "purchased Eurofins (KinaseProfiler)"}, "PKD2(h)": {"molecular_target": "T7, PKD2(h) (Homo sapiens, UniProt Q9BZL6)", "T7 construct": "purchased Eurofins (KinaseProfiler)", "T7 sequence (Q9BZL6 1-878)": "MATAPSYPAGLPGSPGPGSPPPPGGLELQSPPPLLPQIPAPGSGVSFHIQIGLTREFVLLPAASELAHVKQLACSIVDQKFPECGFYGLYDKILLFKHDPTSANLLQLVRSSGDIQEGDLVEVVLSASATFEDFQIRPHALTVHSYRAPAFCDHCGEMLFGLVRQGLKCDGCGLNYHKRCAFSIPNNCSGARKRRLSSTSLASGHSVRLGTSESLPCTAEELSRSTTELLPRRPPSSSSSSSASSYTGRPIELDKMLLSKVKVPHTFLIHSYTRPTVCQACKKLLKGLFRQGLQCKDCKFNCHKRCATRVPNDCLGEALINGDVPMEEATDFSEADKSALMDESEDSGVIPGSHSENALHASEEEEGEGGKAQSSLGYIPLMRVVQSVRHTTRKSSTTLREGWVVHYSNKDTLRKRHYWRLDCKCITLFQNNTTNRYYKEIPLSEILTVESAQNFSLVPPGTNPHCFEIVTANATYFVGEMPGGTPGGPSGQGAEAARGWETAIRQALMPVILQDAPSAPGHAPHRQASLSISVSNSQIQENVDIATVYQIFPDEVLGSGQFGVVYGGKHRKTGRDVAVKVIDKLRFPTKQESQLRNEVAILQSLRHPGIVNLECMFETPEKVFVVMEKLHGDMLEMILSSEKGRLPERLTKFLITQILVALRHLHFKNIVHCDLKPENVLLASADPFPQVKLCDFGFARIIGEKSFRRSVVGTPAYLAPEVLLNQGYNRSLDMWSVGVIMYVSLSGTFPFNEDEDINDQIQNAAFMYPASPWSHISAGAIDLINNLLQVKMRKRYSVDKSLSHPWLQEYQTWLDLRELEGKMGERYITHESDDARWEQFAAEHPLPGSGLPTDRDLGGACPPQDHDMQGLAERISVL"}, "CK2(h)": {"molecular_target": "T8, CK2(h) (Homo sapiens, UniProt P68400)", "T8 construct": "purchased Eurofins (KinaseProfiler)"}, "Fms(Y969C)(h)": {"molecular_target": "T9, Fms(Y969C)(h) (Homo sapiens, UniProt P07333, Y969C)", "T9 construct": "purchased Eurofins (KinaseProfiler)", "T9 sequence (P07333 20-972 Y969C)": "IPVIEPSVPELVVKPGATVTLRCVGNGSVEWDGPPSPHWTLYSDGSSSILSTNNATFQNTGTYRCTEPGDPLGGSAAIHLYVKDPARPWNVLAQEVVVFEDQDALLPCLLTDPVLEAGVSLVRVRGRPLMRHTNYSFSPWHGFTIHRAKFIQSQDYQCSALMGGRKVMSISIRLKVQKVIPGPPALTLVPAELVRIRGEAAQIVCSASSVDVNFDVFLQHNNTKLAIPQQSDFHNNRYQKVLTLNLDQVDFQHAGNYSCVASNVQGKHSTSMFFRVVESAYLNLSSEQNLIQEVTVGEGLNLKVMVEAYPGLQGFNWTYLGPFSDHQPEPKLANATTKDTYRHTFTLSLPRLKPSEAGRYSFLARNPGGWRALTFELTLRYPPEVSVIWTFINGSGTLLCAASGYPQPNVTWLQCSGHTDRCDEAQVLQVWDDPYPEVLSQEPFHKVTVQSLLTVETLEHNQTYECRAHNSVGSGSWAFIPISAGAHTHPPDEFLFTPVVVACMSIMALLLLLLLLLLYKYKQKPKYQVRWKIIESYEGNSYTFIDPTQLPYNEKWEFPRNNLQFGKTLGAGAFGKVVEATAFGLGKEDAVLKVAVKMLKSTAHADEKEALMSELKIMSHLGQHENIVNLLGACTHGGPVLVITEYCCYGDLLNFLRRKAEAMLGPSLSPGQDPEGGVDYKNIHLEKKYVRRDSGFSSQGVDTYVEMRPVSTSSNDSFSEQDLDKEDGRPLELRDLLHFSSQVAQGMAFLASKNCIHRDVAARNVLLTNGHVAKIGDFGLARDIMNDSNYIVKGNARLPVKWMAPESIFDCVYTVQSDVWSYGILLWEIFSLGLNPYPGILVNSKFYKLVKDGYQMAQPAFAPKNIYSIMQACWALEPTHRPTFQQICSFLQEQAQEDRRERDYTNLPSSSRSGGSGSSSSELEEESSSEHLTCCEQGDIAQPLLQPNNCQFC"}, "TSSK1(h)": {"molecular_target": "T10, TSSK1(h) (Homo sapiens, UniProt Q9BXA7)", "T10 construct": "purchased Eurofins (KinaseProfiler)", "T10 sequence (Q9BXA7 1-367)": "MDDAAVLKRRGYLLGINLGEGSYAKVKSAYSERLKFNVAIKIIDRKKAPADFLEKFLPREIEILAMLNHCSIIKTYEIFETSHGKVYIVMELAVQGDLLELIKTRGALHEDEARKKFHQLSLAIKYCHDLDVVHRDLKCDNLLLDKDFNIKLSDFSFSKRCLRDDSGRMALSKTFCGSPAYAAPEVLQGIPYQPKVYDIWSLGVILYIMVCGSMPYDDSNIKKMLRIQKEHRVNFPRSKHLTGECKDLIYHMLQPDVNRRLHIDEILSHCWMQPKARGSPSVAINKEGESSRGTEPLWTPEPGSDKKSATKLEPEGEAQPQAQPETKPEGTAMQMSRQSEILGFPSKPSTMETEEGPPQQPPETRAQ"}},
  "data": [
    {"smiles": "COc1cc(OC)c(Cl)c(-c2ccc3c(NC(=O)c4ccc(N5CCNC(C)(C)C5)cc4)n[nH]c3n2)c1Cl", "note": "[3D185]", "values": [
      {"measurement": "inhibition at 0.01 µM", "setting": "CLK1(h); 10 nM", "value": -7, "unit": "%"},
      {"measurement": "inhibition at 0.1 µM", "setting": "CLK1(h); 100 nM", "value": -5, "unit": "%"},
      {"measurement": "inhibition at 1 µM", "setting": "CLK1(h); 1000 nM", "value": 7, "unit": "%"},
      {"measurement": "inhibition at 0.01 µM", "setting": "GRK3(h); 10 nM", "value": 6, "unit": "%"},
      {"measurement": "inhibition at 0.1 µM", "setting": "GRK3(h); 100 nM", "value": 3, "unit": "%"},
      {"measurement": "inhibition at 1 µM", "setting": "GRK3(h); 1000 nM", "value": 3, "unit": "%"},
      {"measurement": "inhibition at 0.01 µM", "setting": "BRK(h); 10 nM", "value": -5, "unit": "%"},
      {"measurement": "inhibition at 0.1 µM", "setting": "BRK(h); 100 nM", "value": 7, "unit": "%"},
      {"measurement": "inhibition at 1 µM", "setting": "BRK(h); 1000 nM", "value": 46, "unit": "%"},
      {"measurement": "inhibition at 0.01 µM", "setting": "CDK2/cyclinA(h); 10 nM", "value": 2, "unit": "%"},
      {"measurement": "inhibition at 0.1 µM", "setting": "CDK2/cyclinA(h); 100 nM", "value": 7, "unit": "%"},
      {"measurement": "inhibition at 1 µM", "setting": "CDK2/cyclinA(h); 1000 nM", "value": -3, "unit": "%"},
      {"measurement": "inhibition at 0.01 µM", "setting": "PKCβI(h); 10 nM", "value": -7, "unit": "%"},
      {"measurement": "inhibition at 0.1 µM", "setting": "PKCβI(h); 100 nM", "value": -3, "unit": "%"},
      {"measurement": "inhibition at 1 µM", "setting": "PKCβI(h); 1000 nM", "value": -1, "unit": "%"},
      {"measurement": "inhibition at 0.01 µM", "setting": "CaMKIIβ(h); 10 nM", "value": -1, "unit": "%"},
      {"measurement": "inhibition at 0.1 µM", "setting": "CaMKIIβ(h); 100 nM", "value": -3, "unit": "%"},
      {"measurement": "inhibition at 1 µM", "setting": "CaMKIIβ(h); 1000 nM", "value": -4, "unit": "%"},
      {"measurement": "inhibition at 0.01 µM", "setting": "PKD2(h); 10 nM", "value": 7, "unit": "%"},
      {"measurement": "inhibition at 0.1 µM", "setting": "PKD2(h); 100 nM", "value": -4, "unit": "%"},
      {"measurement": "inhibition at 1 µM", "setting": "PKD2(h); 1000 nM", "value": 3, "unit": "%"},
      {"measurement": "inhibition at 0.01 µM", "setting": "CK2(h); 10 nM", "value": 2, "unit": "%"},
      {"measurement": "inhibition at 0.1 µM", "setting": "CK2(h); 100 nM", "value": 9, "unit": "%"},
      {"measurement": "inhibition at 1 µM", "setting": "CK2(h); 1000 nM", "value": 9, "unit": "%"},
      {"measurement": "inhibition at 0.01 µM", "setting": "Fms(Y969C)(h); 10 nM", "value": 34, "unit": "%"},
      {"measurement": "inhibition at 0.1 µM", "setting": "Fms(Y969C)(h); 100 nM", "value": 75, "unit": "%"},
      {"measurement": "inhibition at 1 µM", "setting": "Fms(Y969C)(h); 1000 nM", "value": 95, "unit": "%"},
      {"measurement": "inhibition at 0.01 µM", "setting": "TSSK1(h); 10 nM", "value": 5, "unit": "%"},
      {"measurement": "inhibition at 0.1 µM", "setting": "TSSK1(h); 100 nM", "value": 2, "unit": "%"},
      {"measurement": "inhibition at 1 µM", "setting": "TSSK1(h); 1000 nM", "value": 13, "unit": "%"}
    ]}
  ]
}
